Residues, ends and D or L forms follow the SMILES beside them.
Experiments:
Type in all cases: cell-based
[1] = test system: Staphylococcus aureus CCARM 3709
Protocol: (§1) To compare the antimicrobial activity of the peptide produced by the method of Example 1, the inventors of the present invention measured the growth minimum inhibitory concentration (MIC), which is minimum concentration of the peptide showing no dissociation of bacterial cells.
(§2) Specifically, the bacterial strain described in the following Table 2 was purchased and cultured in each medium to a mid-log phase. Then, after dilution to bacterial cell concentration of 2×10^5 cells/100 μl, the cells were inoculated to a microtiter plate (NUNC, USA). Thereafter, myxinidin 1, myxinidin 2, or myxinidin 3 peptides which have been synthesized in Example 1 above was diluted, 1/2 times for each, with BSA (bovine serum albumin) solution in a 96-well plate. After adding the cells to a plate, the cells were cultured for 12 hours at 37° C. By using a microtiter plate reader (Merck Elisa reader, Germany), the absorbance was measured at a wavelength of 600 nm to determine the MIC value of each bacterial strain. As a control group, myxinidin as a mother peptide was subjected to the same processes as above and the MIC value of each bacterial strain was obtained.

[2] = test system: Listeria monocytogenes KCTC 3710
Protocol: as §1, §2

[3] = test system: Salmonella typhimurium KCTC 1926
Protocol: as §1, §2

[4] = test system: Staphylococcus aureus ATCC 25923
Protocol: as §1, §2

[5] = test system: Pseudomonas aeruginosa ATCC 27853
Protocol: as §1, §2

[6] = test system: Escherichia coli CCARM 1238
Protocol: as §1, §2

[7] = test system: Staphylococcus aureus CCARM 3114
Protocol: as §1, §2

[8] = test system: Escherichia coli CCARM 1229
Protocol: as §1, §2

[9] = test system: Pseudomonas aeruginosa Isolated strain 5018
Protocol: as §1, §2

[10] = test system: Escherichia coli ATCC 25922
Protocol: as §1, §2

[11] = test system: Pseudomonas aeruginosa Isolated strain 3592
Protocol: as §1, §2

[12] = test system: Salmonella typhimurium CCARM 8013
Protocol: as §1, §2

[13] = test system: Salmonella typhimurium CCARM 8009
Protocol: as §1, §2

Escherichia coli 1238 = assay: MIC at salt concentration (Example 3)
Protocol: (§3) To compare the antimicrobial activity of the peptide produced by the method of Example 1, the inventors of the present invention measured the minimum growth inhibitory concentration (MIC), which is minimum concentration of the peptide showing no dissociation of bacterial cells, at salt concentration.
as §2, with “above” for “following”, “was” for “was purchased and”, “BSA+150 mM sodium chloride (NaCl) solution, physiological saline (PBS) solution, or 10 mM sodium phosphate (SP)” for “BSA (bovine serum albumin)”

Escherichia coli = assay: MIC at salt concentration (Example 3)
Protocol: as §3
as §2, with “above” for “following”, “was” for “was purchased and”, “BSA+150 mM sodium chloride (NaCl) solution, physiological saline (PBS) solution, or 10 mM sodium phosphate (SP)” for “BSA (bovine serum albumin)”

[14] = test system: Acinetobacter baumannii 719705; assay: Anti-microbial disk diffusion susceptibility test with gelatin; conditions: 0.1% gelatin
Source text: (§4) FIGS. 4A to 4C show the results of determining the antimicrobial activity when the peptides of the present invention are admixed with gelatin used as a wound moisturizing agent. FIG. 4A: Determination of survival ratio of skin keratinocyte cells in accordance with a change in gelatin concentration; FIG. 4B: Measurement of minimum inhibitory concentration (MIC, μM) of the peptides for Staphylococcus aureus (S. aureus 3018), Acinetobacter baumannii (A. baumannii 719705), and Pseudomonas aeruginosa (P. aeruginosa 4076), in which the result is shown for different gelatin concentrations; FIG. 4C: Result of the anti-microbial disk diffusion susceptibility test carried out for Staphylococcus aureus (S. aureus 3018), Acinetobacter baumannii (A. baumannii 719705), and Pseudomonas aeruginosa (P. aeruginosa 4076), in which the result is shown for different peptide concentrations and also for the presence or absence of gelatin co-blending.
(§5) To specifically determine the antimicrobial activity at the time of mixing the synthetic peptide of the present invention with gelatin, myxinidin 2 and myxinidin 3 synthetic peptides were admixed with 0.1% gelatin. Furthermore, to determine the antimicrobial activity, a minimum inhibitory concentration measurement and an anti-microbial disk diffusion susceptibility test as an agar diffusion method were carried out for Acinetobacter baumannii, Pseudomonas aeruginosa, and Staphylococcus aureus.
(§6) Specifically, cultured Acinetobacter baumannii, Pseudomonas aeruginosa, and Staphylococcus aureus were diluted to a concentration of 2×10^5 cells/ml, admixed with a solution in which 0.1% gelatin is mixed with 1% agarose, and cultured. To see the antimicrobial activity, the peptide was applied on a 6 mm round disk, in which the peptide was applied at various different concentrations, and the diffusion level was measured.

[15] = test system: Staphylococcus aureus 3018; assay: as above; conditions: 0.1% gelatin
Source text: as §4, §5, §6

[16] = test system: human skin keratinocyte cells infected with bacteria having tolerance to antibiotics; assay: Migration of infected skin keratinocyte cells (scrape wound); conditions: peptide at 2 times MIC
Source text: To determine the wound healing effect of the peptide of the present invention by activating migration of skin keratinocyte cells infected with Acinetobacter baumannii, Pseudomonas aeruginosa, or Staphylococcus aureus, which are the bacterial strain having tolerance to antibiotics, the adhered cells were damaged to have an infection followed by a treatment with myxinidin 2 or myxinidin 3. The resulting cells were then observed under a microscope.
Specifically, human skin keratinocyte cells were cultured at 1×10^6 cells/ml, and then scraped off using a tip. Then, the cells were infected with Staphylococcus aureus, Acinetobacter baumannii, or Pseudomonas aeruginosa, which are the bacterial strain having tolerance to antibiotics, followed by a treatment with the peptide at a concentration that is 2 times higher than the minimum inhibitory concentration. Cell migration was then observed under a microscope.

[17] = NaCl (BSA+150 mM sodium chloride)
[18] = infection with Acinetobacter baumannii
[19] = infection with Pseudomonas aeruginosa
[20] = infection with Staphylococcus aureus

Row | Structure (SMILES) | Minimum growth inhibitory concentration [1] [µM] | Minimum growth inhibitory concentration [2] [µM] | Minimum growth inhibitory concentration [3] [µM] | Minimum growth inhibitory concentration [4] [µM] | Minimum growth inhibitory concentration [5] [µM] | Minimum growth inhibitory concentration [6] [µM] | Minimum growth inhibitory concentration [7] [µM] | Minimum growth inhibitory concentration [8] [µM] | Minimum growth inhibitory concentration [9] [µM] | Minimum growth inhibitory concentration [10] [µM] | Minimum growth inhibitory concentration [11] [µM] | Minimum growth inhibitory concentration [12] [µM] | Minimum growth inhibitory concentration [13] [µM] | Antimicrobial activity (MIC) according to salt concentration (Escherichia coli 1238; [17]) | Antimicrobial activity (MIC) according to salt concentration (Escherichia coli 1238; PBS) | Antimicrobial activity (MIC) according to salt concentration (Escherichia coli 1238; SP (10 mM sodium phosphate)) | Antimicrobial activity (MIC) according to salt concentration (Escherichia coli; [17]) | Antimicrobial activity (MIC) according to salt concentration (Escherichia coli; PBS) | Antimicrobial activity (MIC) according to salt concentration (Escherichia coli; SP (10 mM sodium phosphate)) | Antimicrobial activity with gelatin (disk diffusion) [14] | further results
1 | CC[C@H](C)[C@H](NC(=O)CN)C(=O)N[C@@H](Cc1c[nH]cn1)C(=O)N[C@@H](Cc1c[nH]cn1)C(=O)N[C@H](C(=O)N[C@@H](CC(C)C)C(=O)N[C@@H](CCCCN)C(=O)N[C@@H](Cc1ccc(O)cc1)C(=O)NCC(=O)N[C@@H](CCCCN)C(=O)N1CCC[C@H]1C(=O)N[C@@H](CO)C(N)=O)[C@@H](C)CC [Myxinidin 1, GIHHILKYGKPS-NH2] (H-GIHHILKYGKPS-NH2; N-terminus assumed) | >32 | >32 | >32 | >32 | >32 | >32 | >32 | >32 | >32 | >32 | >32 | >32 | >32 | >32 | >32 | >32 | >32 | >32 | >32 | – | –
2 | CC[C@H](C)[C@H](NC(=O)[C@H](Cc1c[nH]c2ccccc12)NC(=O)[C@H](CCCCN)NC(=O)[C@@H](NC(=O)[C@@H](N)CCCCN)[C@@H](C)CC)C(=O)N[C@@H](CC(C)C)C(=O)N[C@@H](CCCCN)C(=O)N[C@@H](Cc1ccc(O)cc1)C(=O)N[C@@H](Cc1c[nH]c2ccccc12)C(=O)N[C@@H](CCCCN)C(=O)N[C@@H](Cc1c[nH]c2ccccc12)C(=O)N[C@@H](CO)C(N)=O [Myxinidin 2, KIKWILKYWKWS-NH2] (H-KIKWILKYWKWS-NH2; N-terminus assumed) | 2 | 4 | 2 | 0.25 | 4 | 4 | 32 | 2 | 4 | 1 | 8 | 16 | 8 | 8 | 2 | 4 | 8 | 4 | 2 | the antimicrobial activity was maintained | Antimicrobial activity with gelatin (disk diffusion) [15]: a similar antimicrobial activity was maintained; Cell migration / regeneration of scraped keratinocytes [16, 18]: proliferation with no cell death; Cell migration / regeneration of scraped keratinocytes [16, 19]: fast regeneration rate; Cell migration / regeneration of scraped keratinocytes [16, 20]: Proliferation with no cell death
3 | CC[C@H](C)[C@H](NC(=O)[C@H](Cc1c[nH]c2ccccc12)NC(=O)[C@H](CCCNC(=N)N)NC(=O)[C@@H](NC(=O)[C@@H](N)CCCNC(=N)N)[C@@H](C)CC)C(=O)N[C@@H](CC(C)C)C(=O)N[C@@H](CCCNC(=N)N)C(=O)N[C@@H](Cc1ccc(O)cc1)C(=O)N[C@@H](Cc1c[nH]c2ccccc12)C(=O)N[C@@H](CCCNC(=N)N)C(=O)N[C@@H](Cc1c[nH]c2ccccc12)C(=O)N[C@@H](CO)C(N)=O [Myxinidin 3, RIRWILRYWRWS-NH2] (H-RIRWILRYWRWS-NH2; N-terminus assumed) | 2 | 1 | 1 | 0.25 | 2 | 2 | 8 | 1 | 8 | 0.5 | 8 | 4 | 4 | 8 | 4 | 2 | 8 | 2 | 2 | exhibited a slightly higher antimicrobial activity when the treatment is made only with the peptide | Antimicrobial activity with gelatin (disk diffusion) [15]: a similar antimicrobial activity was maintained; Cell migration / regeneration of scraped keratinocytes [16, 18]: fast regeneration rate; Cell migration / regeneration of scraped keratinocytes [16, 19]: proliferation with no cell death; Cell migration / regeneration of scraped keratinocytes [16, 20]: more rapid regeneration
